Test results from ChEMBL document CHEMBL1157182, “Structural insights into the Plasmodium falciparum histone deacetylase 1 (PfHDAC-1): A novel target for the development of antimalarial therapy” (Bioorg Med Chem, 2008).

Columns and labels:
Plasmodium falciparum [1] = assay: Antimalarial activity against chloroquine-sensitive Plasmodium falciparum D6 after 48 hrs by LDH reporter assay; format: functional, organism-based; conditions: D6, 48 h
Plasmodium falciparum [2] = assay: Antimalarial activity against chloroquine-resistant Plasmodium falciparum W2 after 48 hrs by LDH reporter assay; format: functional, organism-based; conditions: W2, 48 h

Compound | IC50 (Plasmodium falciparum [1]; read-out: IC50) | IC50 (Plasmodium falciparum [2]; read-out: IC50) | IC50 (Plasmodium falciparum [1]; read-out: pIC50 (converted)) | IC50 (Plasmodium falciparum [2]; read-out: pIC50 (converted))
C[C@@H]1CC[C@H]2[C@@H](C)C(=O)O[C@@H]3O[C@@]4(C)CC[C@@H]1[C@]32OO4 [ARTEMISININ] | 9 nM | 1 nM |  | 
CC(/C=C/C(=O)NO)=C\[C@@H](C)C(=O)c1ccc(N(C)C)cc1 [TRICHOSTATIN] | 15.6 nM | 10 nM | 15.5 nM | 9.77 nM
O=C(NO)c1ccccc1O [SALICYLHYDROXAMIC ACID] | 35700 nM | 51300 nM | 35500 nM | 51300 nM
O=C(CCCCCCC(=O)NO)NO [SUBEROHYDROXAMIC ACID] | 2230 nM | 1530 nM | 2240 nM | 1510 nM
O=C(CCCCCCCC(=O)NO)NO [AZELAIC BIS HYDROXAMIC ACID] | 5500 nM | 3900 nM | 5500 nM | 3890 nM
